From a melting point compilation (Tetko et al.; mined from patent text by program, amines drawn as free bases though some values may be those of a salt)
Non-standard residues stand in square brackets, D forms with d. Residues, ends and D or L forms follow the SMILES beside them. Hyp = O=C(O)[C@@H]1C[C@@H](O)CN1

Row | Compound | melting point [°C]
1 | COc1ccc2c(c1)C(c1ccc(Cl)cc1)=C1CCC(=S)NC12 (stereo unspecified) | 202 to 203
2 | CC(C)(C)OC(=O)N1CCc2c(C=O)c3ccccc3n2CC1 | 167 to 168
3 | CCOC(=O)C=C(C)Nc1cc(C)ccc1C | 67
4 | COCCOc1cc(C)nc(NC(=O)NS(=O)(=O)c2ccccc2Cl)n1 | 130 to 140
5 | CC1Cc2c([nH]c3ccccc23)-c2nc3c(c(=O)n21)CCCC3 (stereo unspecified) | 232
6 | C1=Cc2cc3ccccc3cc2CS1 | 84
7 | O=C(CO)c1cc(O)c(O)c([N+](=O)[O-])c1 | 208 to 210
8 | CCOC(=O)C1=C(C)NC(N=CN(C)C)=C(C(=O)OCC)C1c1ccccc1Cl (stereo unspecified) | 140
9 | Cc1c(C(N)=O)sc2cncc(Oc3ccc(Br)cc3)c12 | 78 to 80
10 | Cc1ccc(N2C(=O)C(O)=C(C(=O)c3ccc(C(C)C)cc3)C2c2ccc(OC(F)(F)F)cc2)nn1 (stereo unspecified) | 221
11 | Clc1ccc(CC2(n3cncn3)CC2)cc1 | 67 to 68
12 | c1cc(OC2CCNCC2)c2cn[nH]c2c1 | 162 to 165
13 | Nc1ccc(Cl)c2c(Cl)ccnc12 | 135
14 | S=C=Nc1ccc2oc(-c3sccc3CN3CCOCC3)nc2c1 | 117 to 118
15 | CC(C)C=NNC1=NS(=O)(=O)c2ccccc21 | 225
16 | CC(C)(C)OC(=O)Nc1cccc(-c2nc(=O)o[nH]2)c1 | 193
17 | O=S(=O)(Cl)c1ccc(Nc2nccc(Cl)n2)cc1 | 192 to 195
18 | COC(=O)c1ccc(NC=O)nc1 | 218 to 220
19 | Cc1nc2c3c(c(C(=O)N4CC4)cc2n1C)CCC(c1ccccc1)O3 (stereo unspecified) | 201 to 204
20 | CC(C)NCC(O)c1ccc(N)c(C(F)(F)F)c1 (stereo unspecified) | 136 to 138
21 | N#CC1=C(C2CCCC2)Nc2n[nH]cc2C1c1ccccc1Cl (stereo unspecified) | 225
22 | CN(C)C(=O)Nc1ccc2c(c1)C(=O)NC(=O)C2(C)C | 256 to 258
23 | CCOC(=O)c1ncn2c1CN(C)C(=O)c1c(F)cccc1-2 | 196 to 198
24 | CCCCCCCCCCCCCCOc1ccc(COC(=O)N(Cc2ccccn2)C(C)=O)cc1 | 52 to 53

Row | Compound | melting point [°C]
25 | COc1cc(Br)c(OC(=O)c2ccc(OC)c(F)c2)c(NC(=O)c2ccc(OC)c(F)c2)c1 | 184 to 186
26 | CN(C)CC(c1ccccc1)c1nnc2n1-c1ccc(Cl)cc1C(c1ccccc1)=NC2 (stereo unspecified) | 168 to 170
27 | Cn1c2c(c3c(Cl)cccc31)CCOC2(C)CC(=O)O (stereo unspecified) | 105 to 110
28 | CC(C)(C)c1cc(-c2ccc(C(=O)O)cc2)cc(C(C)(C)C)c1O | > 240
29 | CCC(CC)n1cnc2c1c(=O)n(C)c(=O)n2-c1ccc(Cl)cc1Cl | 158 to 159
30 | N#CNc1ccccc1N1CCOCC1 | 175 to 176
31 | FC(F)(F)c1cccc(-c2ncc(CCl)c(C3CC3)n2)c1 | 92 to 95
32 | C[C@H]1[C@H](O)CN1c1c(F)cc2c(=O)c(C(=O)O)cn(C3CC3)c2c1F (relative stereo) | 215 to 218
33 | CC(C)Cc1cc(C(=O)N2CCN(CC(C)C)CC2)ccc1OCc1ccc(F)cc1 | 77 to 78
34 | CCOC(=O)COc1ccc(C2C(C(=O)OCC)=C(C)N(C)C(C)=C2C(=O)OCC)cc1OC | 84 to 85
35 | CC(C)(C)OC(=O)c1cn(-c2ccc(Cl)cc2)c(-c2ccc(Cl)cc2Cl)n1 | 179 to 181
36 | COc1ccc(-c2ccnc(N3CCN(c4c(C)c(C)c5c(c4C)CC(C)(C)O5)CC3)n2)cc1 | 156 to 159
37 | CC(=O)Nc1c([N+](=O)[O-])cc(Br)cc1[N+](=O)[O-] | 238 to 239
38 | NCC(=O)N1C[C@H](O)C[C@H]1C(=O)N[C@@H](CCC(=O)O)C(=O)O (H-Gly-[Hyp]-Glu-OH) | 158 to 160
39 | COC(=O)c1ccc(NC(C)=O)cc1OC | 130 to 132
40 | CCCNC(=O)C(CCC(=O)NCCCOC(C)=O)NC(=O)C=Cc1ccco1 (stereo unspecified) | 154 to 156
41 | OCC1OC(c2c(Cl)nc3cc(Cl)c(Cl)cn23)C(O)C1O (stereo unspecified) | 239 to 240
42 | CCOC(=O)C(=O)c1cc(OC)c(O)c([N+](=O)[O-])c1 | 165 to 167
43 | CCC(CC)Oc1ccc(-n2cc(C(=O)O)cn2)cc1C#N | 142 to 144
44 | Cc1cnoc1-c1ccc2c(c1)c1cc(-c3ccc(Cl)cc3Cl)c(=O)n(C)c1n2C | 233 to 234
45 | CC1Cc2cc3c(cc2C(c2ccc([N+](=O)[O-])cc2)=NN1C(N)=NO)OCO3 (stereo unspecified) | 138 to 145
46 | COc1cc2c(c(C(C)C)c1OC)CC(C)C=C2 (stereo unspecified) | 56 to 57
47 | COC1=CC=C2C3Cc4ccc(O)c5c4C2(CCN3C)C1O5 (stereo unspecified) | 114 to 116
48 | CC(C)(S)[C@H]1C[C@H](C(=O)O)CS1 (relative stereo) | 97 to 98.3

Row | Compound | melting point [°C]
49 | CC(C)(C)NCC(O)COc1cccc2[nH]cc(Cl)c12 (stereo unspecified) | 95 to 97
50 | CCn1cc(C(=O)O)c(=O)c2cc(F)c(N3CC(C)C(CN)C3)c(F)c21 (stereo unspecified) | 222 to 224
51 | CC(C)[C@H](NC1CCCCC1)C(=O)NCCCC(c1ccc(F)cc1)c1ccc(F)cc1 | 49 to 53
52 | Cc1cc(OCc2c(-c3c(Cl)cccc3Cl)noc2C(C)C)cnc1NC(=O)c1ccc(C(=O)O)cc1 | 218
53 | CCCCCCCCCCCCCCCCCNC(=O)O[C@@H]1CCO[C@H]1CO (relative stereo) | 77 to 78
54 | Cc1cc(I)cc2[nH]c(=O)oc12 | 248 to 250
55 | OCc1conc1-c1ccc(C(F)(F)F)cc1 | 70 to 71
56 | Oc1cc(-c2ncnc(C(F)(F)F)c2Cl)c(F)cc1Cl | 130 to 132
57 | N=C(NCc1c[nH]c2ccccc12)C(Cl)(Cl)Cl | 136 to 138
58 | COc1cccc2nc(-c3ccc(OCCO)c(-c4ccc(S(C)(=O)=O)cc4)n3)[nH]c(=O)c12 | > 300
59 | Fc1cc(F)c(N=C2NCCN2)c(F)c1F | 167 to 168
60 | COc1cc(OC)c(SC(C)(C)CC(=O)O)c(OC)c1 | 103 to 105
61 | CC1(C)COC(c2sccc2C2c3cc4c(cc3OCC2[N+](=O)[O-])OCO4)=N1 (stereo unspecified) | 138 to 140
62 | FC(F)(F)c1cccc(-c2nccc3nncn23)c1 | 145 to 146
63 | O=c1oc2c(c(O)c1C(c1ccccc1)C1CC1)CCCCC2C(O)C1CC1 (stereo unspecified) | 88 to 90
64 | CC1(C)CC(CN2CCNC2=N[N+](=O)[O-])CO1 (stereo unspecified) | 119 to 120
65 | CC(C)(C)OC(=O)NNc1cccc([N+](=O)[O-])c1 | 105
66 | Cc1ccc(-n2nc3c(c2O)-c2ccccc2CC3)nc1 | 156 to 157
67 | N#Cc1ccc(-c2c[nH]nc2C(F)(F)F)cc1SCC(F)(F)F | 65 to 67
68 | CC(=O)N1c2ccc(O)cc2Sc2cc([N+](=O)[O-])ccc21 | 202 to 205
69 | Cn1nccc1-n1ccnc1S(N)(=O)=O | 230 to 233
70 | CNC(=O)[C@H](CCCCNC(=O)OCc1ccccc1)NC(=O)OC(C)(C)C | 100 to 102

Further lines, results first:

Row | melting point [°C] | Compound
71 | 261 to 262 | CC(C)C(C(=O)O)N(Cc1cccnc1)S(=O)(=O)c1ccc(-c2ccc(NC(=O)c3cc4ccccc4o3)cc2)cc1 (stereo unspecified)
72 | 199 to 202 | Cn1cnc(COc2nn3c(-c4ccccc4)nnc3cc2-c2ccccc2)c1
73 | 232 to 234 | O=C(C1CCCc2c1c1ccccc1n2Cc1ccccc1)N1CCCC1 (stereo unspecified)
74 | 84 to 86 | CC(C)(C)OC(=O)N1COC(=O)[C@@H]1Cc1ccccc1
75 | 159 to 163 | O=C(O)Cn1c(=O)c(-c2ccccc2Cl)cc2cnc(NC3C4CN(Cc5ccccc5)CC43)nc21 (stereo unspecified)
76 | 82 | Clc1ccc(C2CN(C(c3ccccc3)c3ccccc3)C2)cc1
77 | 220 to 226 | N#Cc1cnc2c(=O)c3ccccc3oc2c1
78 | 142 | COC(=O)CCc1cc2c(Cl)c(Cl)ccc2n1S(=O)(=O)c1ccccc1
79 | 198 to 200 | CCCCCCC(c1cccc(C(=O)NC(c2ccccc2)c2ccccc2)c1)c1nnn[nH]1 (stereo unspecified)
80 | 167 to 169 | CS(=O)(=O)N(c1cccc(CN2CCN(C(c3ccccc3)c3ccccc3)CC2)n1)S(C)(=O)=O
81 | 47.3 | CCCCCCC(C)Oc1ccc(N=Cc2ccccc2)cc1 (stereo unspecified)
82 | 160 to 164 | N#Cc1cccc(CN2C(=O)NC(c3ccccc3)(c3ccccc3)C2=O)c1
83 | 280 to 282 | Cc1[nH]c(=O)c(C#N)cc1-c1ccc(CC(=O)O)cc1
84 | 91 to 92 | CC1(C)c2ccccc2C(C#N)c2ccccc21
85 | 202 to 203 | Cc1cccc(C(=O)O)c1-c1ccc(C(F)(F)F)cc1
86 | 182 to 184 | CCS(=O)(=O)c1ccc(C(=O)NCc2ccc3c(c2)C(=O)N(C2CCC(=O)NC2=O)C3=O)cc1 (stereo unspecified)

Row | melting point [°C] | Compound
87 | 112 to 116 | O=C(NCCc1ccccc1)[C@@H]1Cc2ccccc2N1
88 | > 300 | N#Cc1cccc2c1ccc1nc(O)c(O)nc12
89 | 148 to 149 | CCc1ccc(C(=O)COc2ccc(CC3SC(=O)NC3=O)cc2)nc1 (stereo unspecified)
90 | 152 | CCc1oc2ccc([N+](=O)[O-])cc2c1C(=O)c1ccc(O)cc1
91 | 96 | CCOC(=O)C(C)Oc1ccc(N(C)c2cc3ccccc3c(O)n2)cc1 (stereo unspecified)
92 | 114 to 116 | Cc1cc(C)cc(COC(=O)C(Cc2c[nH]c3ccccc23)NS(=O)(=O)c2ccccc2)c1 (stereo unspecified)
93 | 204 to 206 | CC(=O)SCC(Cc1ccccc1)C(=O)Nc1cc(C(=O)O)ccc1Cl (stereo unspecified)
94 | 87 to 91 | Cc1ccccc1-c1cn(C)cc(-c2ccccc2Cl)c1=O
95 | 154 to 155 | Cc1cccc(-c2nc3cccnn3c2-c2ccnc(N[C@@H](C)c3ccccc3)c2)c1
96 | 83 to 98 | CCC1(Cc2ncn(C(c3ccccc3)(c3ccccc3)c3ccccc3)c2C)CCc2c(C)c3ccccc3n2C1=O (stereo unspecified)
97 | 196 | Cc1ccc([C@@H]2Sc3ccccc3NC(=O)[C@@H]2CN2CCN(C)CC2)cc1 (relative stereo)
98 | 199 to 200 | CC(C(=O)O)c1ccc(-c2ccc(OCc3nc4ccccc4s3)cc2)cc1 (stereo unspecified)
99 | 168 to 170 | O=C(NNS(=O)(=O)c1ccccc1)c1ccc(Cl)cc1Cl
100 | 142 to 144 | O=c1c2ccccc2c(-c2ccc(Cl)cc2)nn1CCc1ccncc1
101 | 175 to 177 | Cc1cc(CNC2CC2)cc(C)c1Oc1ccc([N+](=O)[O-])c(Nc2ccc(C#N)cc2)n1
